Counter-ions that a name gives are not always drawn.
How the values were obtained:
[1] = GC-MS quantification of total and 13C-enriched metabolites in paired normal and cancerous lung tissues
[2] = NMR 13C-isotopomer profiling of TCA extracts of paired non-cancerous and cancerous lung tissues; conditions: for % enrichment: human, in vivo; for relative 13C abundance (HSQC peak volume normalized to total succinate concentration): patients #6-10
Procedure: Lung cancer patients were recruited based on the criteria of surgical eligibility and no history of diabetes. Each patient was consented in accordance with the U.S. HIPAA regulations. The following patient protocol was approved by the Internal Review Board at the University of Louisville. Ten grams uniformly ^13C labeled glucose ([U-^13C]-Glc or ^13C6-Glc or ^13C6-Glucose) in sterile saline solution were infused i.v. over a 30 min time period into each patient in the pre-op room approximately 3 or 12 hr prior to resection. Whole blood samples were collected into a vacutainer containing the anticoagulant K3EDTA or K3-EDTA before and after [U-^13C]-Glc infusion as well as after the surgery. Additional blood samples were collected 3 and 12 hr after the [U-^13C]-Glc infusion for the 12 hr treatment cases. […] The blood samples were placed on ice immediately after collection and centrifuged at 4° C. at 3,500×g for 15 min to recover the plasma fraction. All blood samples were aliquoted and flash-frozen in liquid N2 within 30 min of collection. Potassium EDTA was used as an anti-coagulant to minimize metabolic artifacts associated with anti-coagulation; it also served to remove the influence of interfering cations such as paramagnetic Fe^3+ and Cu^2+ for NMR analysis.
All timings from first incision to cutting arteries and veins to the lung were recorded so that the period of ischemia could be determined immediately after tissue resection, excess blood was blotted from the tissue, and small pieces of non-cancerous and tumor tissue were cut by the surgeon and freeze-clamped in liquid N2 within 5 minutes of removal from the chest cavity. The freezing process arrested metabolic changes almost instantaneously. […] Non-cancerous tissue was removed at least 2 cm from the tumor margin and certified to be tumor-free by trained pathologists. Subsequent pathological evaluation also confirmed tumor status and provided the tumor stage. All samples were stored at −80° C. until further processing for analysis.
Frozen tissue samples were pulverized into <10 μm particles in liquid N2 using a Spex freezer mill (Spex CertiPrep, Inc., Metuchen, N.J.) to maximize efficiency for subsequent extraction while maintaining biochemical integrity. An aliquot of the frozen powder was lyophilized before extraction for metabolites.
Water-soluble or polar metabolites were extracted from lyophilized tissue powders (4-48 mg) in ice-cold 10% trichloroacetic acid (TCA) (v/w minimum 40/1) while leaving proteins, nucleic acids, and polysaccharides behind, as described previously (Kim et al. Antioxidants & Redox Signaling 2001, 3:361-373). The extraction was performed twice for quantitative recovery. An aliquot (150 μl) of plasma samples were made to final 10% TCA concentration to precipitate proteins and recover metabolites in the supernatant. TCA was then removed from tissue or plasma extracts by lyophilization. The dry pellet was dissolved in nanopure water and two small aliquots were lyophilized for silylation and GC-MS analysis while the remaining bulk was passed through a Chelex 100 resin column (Bio-Rad Laboratories, Inc., Hercules, Calif.) to neutralize and remove interfering multivalent cations for NMR analysis.
The ^1H reference standard, DSS (2,2-Dimethyl-2-silapentane-5-sulfonate sodium salt) was added (30 or 50 nmoles) to the TCA extracts of tissue or plasma samples, respectively. […]

[3] = Isotopic enrichment in SCID mouse tissue lactate and glucose by 1D 1H NMR; assay type: in vivo; conditions: SCID, mouse, in vivo, 15 min
Procedure: A 20% solution of glucose in normal saline was sterile-filtered. 100 μL of this solution, or a 1:10 dilution (2%) were injected into the tail vein of a restrained mouse without anesthesia.
Mice were sacrificed at different times post glucose injection, and the following organs were dissected sequentially: lung, heart, liver, kidney, brain, spleen, and thigh muscle. Dissected tissue was flash frozen in liquid N2 within 1 minute of killing the animal.
Frozen tissues were ground in liquid N2 to <10 μm particles in a 6750 Freezer/Mill (Retsch, Inc., Newtown, Pa.) and extracted for soluble and lipidic metabolites as follows. Up to 20 mg of frozen tissue powder in 15 ml polypropylene conical centrifuge tube (Sarstedt, Newton, N.C.) containing 3 mm diameter glass beads was vigorously mixed with 2 ml of cold acetonitrile (mass spectrometry grade, stored at −20° C.) to denature proteins, followed by addition of 1.5 ml nanopure water, and 1 ml HPLC-grade chloroform (Fisher Scientific). The mixture was shaken vigorously until achieving a milky consistency followed by centrifugation at 3,000 g for 20 minutes at 4° C. to separate the polar (top), lipidic (bottom), and tissue debris layers (interface). The polar and lipidic layers were recovered sequentially and the remaining cell debris was extracted again with 0.5 ml chloroform:methanol:butylated hydroxytoluene (BHT) (2:1:1 mM) which was pooled with the lipidic fraction. All three fractions were vacuum-dried in a speedvac device (Vacufuge, Eppendorf, New York, N.Y.) and/or by lyophylization. The dry weight of tissue debris was obtained for normalization of metabolite content. The polar extracts were redissolved in 100% D2O containing 30 nmol perdeuterated DSS (2,2-dimethyl-2-silapentane-5-sulfonate, Cambridge Isotope Laboratories, Andover, Mass.) as internal chemical shift and concentration reference for NMR measurement.
NMR spectra were recorded at 14.1 T on a Varian Inova spectrometer equipped with a 5 mm inverse triple resonance cold probe, at 20° C. 1D NMR spectra were recorded with an acquisition time of 2 s and a recycle time of 5 sec. Concentrations of metabolites and ^13C incorporation were determined by peak integration of the ^1H NMR spectra referenced to the DSS methyl groups, with correction for differential relaxation, as previously described (See, Lane et al. (2008) Biophysical Tools for Biologists. 84: 541-588; Fan et al. (2008) Progress in NMR Spectroscopy 52: 69-117; Lane et al. (2007) Metabolomics 3: 79-86.). ^1H Spectra were typically processed with zero filling to 131 k points, and apodized with an unshifted Gaussian and a 0.5 Hz line broadening exponential.
The same extracts from FIG. 9 were analyzed by NMR to complement the GC-MS analysis. The ^13C enrichment into glucose/glucose-6-phosphate and lactate was determined by 1D ^1H NMR. The enrichments at 15 and 30 minutes post infusion were substantial in all tissues, and peak lactate enrichments differed according to the metabolic activity or glucose uptake rates of the different tissues (Table 7).
Lac measured at C3, G1c measured at C1α by NMR

[4] = GC-MS analysis of 13C-mass isotopomers of lactate in plasma after [U-13C]-glucose infusion; assay type: in vivo, human; conditions: in excess of natural abundance
[5] = patient #6 (sqC, grade II), cancer tissue
[6] = patient #6 (sqC, grade II), normal tissue
[7] = patient #7 (adenoC, grade II), cancer tissue
[8] = patient #7 (adenoC, grade II), normal tissue
[9] = patient #8 (sqC, grade II-III), cancer tissue
[10] = patient #8 (sqC, grade II-III), normal tissue
[11] = patient #9 (sqC, grade II), cancer tissue
[12] = patient #9 (sqC, grade II), normal tissue
[13] = patient #10 (sqC, grade III), cancer tissue
[14] = patient #10 (sqC, grade III), normal tissue

| SMILES | metabolite content of lung tissue [1, 5] [μmole/g dry weight] | metabolite content of lung tissue [1, 6] [μmole/g dry weight] | metabolite content of lung tissue [1, 7] [μmole/g dry weight] | metabolite content of lung tissue [1, 8] [μmole/g dry weight] | metabolite content of lung tissue [1, 9] [μmole/g dry weight] | metabolite content of lung tissue [1, 10] [μmole/g dry weight] | metabolite content of lung tissue [1, 11] [μmole/g dry weight] | metabolite content of lung tissue [1, 12] [μmole/g dry weight] | metabolite content of lung tissue [1, 13] [μmole/g dry weight] | metabolite content of lung tissue [1, 14] [μmole/g dry weight] | % enrichment [2] [%] | % 13C isotopic enrichment in tissue [3] [%] | relative 13C abundance (HSQC peak volume normalized to total succinate concentration) ([2]; non-cancerous tissues) | relative 13C abundance (HSQC peak volume normalized to total succinate concentration) ([2]; tumor tissues) | Percentage distribution of 13C-mass isotopomers of lactate in plasma ([4]; patient #6, [U-13C]-glucose 3 h) [%] | Percentage distribution of 13C-mass isotopomers of lactate in plasma ([4]; patient #7, [U-13C]-glucose 3 h) [%] | Percentage distribution of 13C-mass isotopomers of lactate in plasma ([4]; patient #8, [U-13C]-glucose 3 h) [%] | Percentage distribution of 13C-mass isotopomers of lactate in plasma ([4]; patient #9, [U-13C]-glucose 3 h) [%] | Percentage distribution of 13C-mass isotopomers of lactate in plasma ([4]; patient #10, [U-13C]-glucose 3 h) [%] |
| --- | --- | --- | --- | --- | --- | --- | --- | --- | --- | --- | --- | --- | --- | --- | --- | --- | --- | --- | --- |
| N[C@@H](CCC(=O)O)C(=O)O [Total Glu, glutamate] | 4.80 | 0.24 | 2.97 | 2.96 | 3.25 | 1.88 | 4.78 | 1.91 | 3.28 | 1.82 |  |  |  |  |  |  |  |  |  |
| C[C@H](N)C(=O)O [Total Ala, alanine] | 15.76 | 4.67 | 6.44 | 6.25 | 9.28 | 4.97 | 15.08 | 5.14 | 27.34 | 5.42 | ≤ 15 | 16 |  |  |  |  |  |  |  |
| N[C@@H](CC(=O)O)C(=O)O [Total Asp, aspartate] | 4.27 | 1.32 | 3.09 | 3.83 | 1.51 | 2.67 | 4.78 | 1.94 | 1.66 | 2.27 | < 8 |  |  |  |  |  |  |  |  |
| NC(=O)CC[C@H](N)C(=O)O [Total Gln, glutamine] | 7.68 | 0.56 | 1.02 | 1.41 | 1.32 | 0.64 | 2.71 | 0.74 | 2.99 | 0.79 |  |  |  |  |  |  |  |  |  |
| O=C(O)[13CH2][13CH2]C(=O)O [C-2,3-succinate] |  |  |  |  |  |  |  |  |  |  |  |  | 0.6±0.7 | 3.6±1.2 |  |  |  |  |  |
| [13CH3][13CH](O)[13C](=O)O (stereo not shown) [[U-^13C]-Lactate, uniformly ^13C labeled lactate] |  |  |  |  |  |  |  |  |  |  |  |  |  |  | 1.89 | 4.84 | 3.31 | 3.47 | 6.37 |
| O=C(O)CCC(=O)O [Total Succ, succinate] | 1.34 | 0.17 | 0.70 | 0.50 | 1.84 | 0.89 | 1.59 | 0.64 | 3.13 | 1.14 |  |  |  |  |  |  |  |  |  |
| O=C(O)CC(O)(CC(=O)O)C(=O)O [Total Cit, citrate] | 1.32 | 0.60 | 1.18 | 1.21 | 1.56 | 1.28 | 1.53 | 0.77 | 1.37 | 0.74 |  |  |  |  |  |  |  |  |  |
